The values that follow come from publication PMC5725665, “Discovery of a Highly Selective Cell‐Active Inhibitor of the Histone Lysine Demethylases KDM2/7” (Angewandte Chemie (International Ed. in English), 2017).

What all share (assay): biochemical
Parameters in all cases: AlphaScreen histone demethylase activity assay

One assay has as its target T1, JMJD2D (KDM4D) (Homo sapiens, UniProt Q6B0I6).
T1 sequence (Q6B0I6 1-523): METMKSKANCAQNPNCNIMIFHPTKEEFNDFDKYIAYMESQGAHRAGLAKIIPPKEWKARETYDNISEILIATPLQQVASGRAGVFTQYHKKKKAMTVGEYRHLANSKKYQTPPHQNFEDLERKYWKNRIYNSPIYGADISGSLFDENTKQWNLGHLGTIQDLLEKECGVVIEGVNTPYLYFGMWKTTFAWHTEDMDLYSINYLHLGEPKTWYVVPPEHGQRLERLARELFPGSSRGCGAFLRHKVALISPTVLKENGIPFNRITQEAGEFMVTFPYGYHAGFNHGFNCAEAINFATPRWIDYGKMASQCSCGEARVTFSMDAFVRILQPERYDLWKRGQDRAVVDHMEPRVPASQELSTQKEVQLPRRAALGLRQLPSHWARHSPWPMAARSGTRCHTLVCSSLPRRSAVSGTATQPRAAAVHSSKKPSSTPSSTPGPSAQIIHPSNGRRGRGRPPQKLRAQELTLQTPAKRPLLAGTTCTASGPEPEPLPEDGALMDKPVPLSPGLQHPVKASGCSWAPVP
The text has this: (§1) A base‐mediated 5‐endo‐trig cyclization of a C‐2‐substituted aromatic imine afforded the racemic indoline core with two adjacent stereocenters. Subsequent acylation of the indoline ring system conferred stability towards oxidation and provided a handle for modulating polarity. Finally, metal‐catalysed cross‐coupling of the aryl bromide provided access to a variety of linkers between the indoline core and pyrrolidine capping group. In total, 45 racemic compounds were synthesized, and IC50 values for inhibition of KDM2A were determined using two orthogonal enzyme activity assays: AlphaScreen25 and RapidFire MS26 (see Section S3.1 in the Supporting Information for complete inhibition data). Key structure–activity relationships are summarized below (Scheme 1 B, compounds 2–12). […] In immunofluorescence assays using HeLa cells ectopically expressing catalytically active KDM2A, a dose‐dependent increase in H3K36me2 staining was observed upon incubation with (S,S)‐6, reflecting augmented cellular H3K36me2 levels (Figure 2 A and Section S3.3). […] To profile its selectivity, (S,S)‐6 was tested for inhibitory activity against a panel of KDMs, methyllysine binding motifs, and epigenetic enzymes.

Another assay concerns the target JARID1A (KDM5A) (Homo sapiens, UniProt P29375).
Source text: as §1

The next assay addresses T2, JMJD2C (KDM4C) (Homo sapiens, UniProt Q9H3R0).
T2 sequence (Q9H3R0 1-1056): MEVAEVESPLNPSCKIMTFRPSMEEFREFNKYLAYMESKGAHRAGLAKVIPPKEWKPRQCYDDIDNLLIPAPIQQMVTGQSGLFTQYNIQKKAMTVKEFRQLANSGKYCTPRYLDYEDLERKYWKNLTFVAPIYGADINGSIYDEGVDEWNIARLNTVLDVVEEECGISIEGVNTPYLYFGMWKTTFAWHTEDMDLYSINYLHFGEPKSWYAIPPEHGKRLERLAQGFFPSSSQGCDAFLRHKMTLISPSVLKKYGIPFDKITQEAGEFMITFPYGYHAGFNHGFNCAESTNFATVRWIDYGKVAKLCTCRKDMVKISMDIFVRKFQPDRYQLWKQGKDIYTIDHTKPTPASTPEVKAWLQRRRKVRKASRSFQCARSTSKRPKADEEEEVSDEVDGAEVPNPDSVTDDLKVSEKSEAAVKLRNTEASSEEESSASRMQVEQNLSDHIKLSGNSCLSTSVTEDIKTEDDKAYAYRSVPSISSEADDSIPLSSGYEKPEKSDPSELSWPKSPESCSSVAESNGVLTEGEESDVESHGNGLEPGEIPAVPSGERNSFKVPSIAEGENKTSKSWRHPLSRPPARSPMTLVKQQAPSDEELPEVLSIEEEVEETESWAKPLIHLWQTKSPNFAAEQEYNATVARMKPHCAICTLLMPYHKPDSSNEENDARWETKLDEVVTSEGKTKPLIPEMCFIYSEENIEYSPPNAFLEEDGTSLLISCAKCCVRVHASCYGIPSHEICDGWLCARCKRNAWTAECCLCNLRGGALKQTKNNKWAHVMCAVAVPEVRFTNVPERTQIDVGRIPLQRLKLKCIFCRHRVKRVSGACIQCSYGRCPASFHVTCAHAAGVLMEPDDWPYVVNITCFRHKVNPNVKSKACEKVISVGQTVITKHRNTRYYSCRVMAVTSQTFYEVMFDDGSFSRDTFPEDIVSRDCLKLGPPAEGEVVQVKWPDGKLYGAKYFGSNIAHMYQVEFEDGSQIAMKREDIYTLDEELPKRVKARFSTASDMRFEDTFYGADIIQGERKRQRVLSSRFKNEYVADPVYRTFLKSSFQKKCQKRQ
As to conditions: read-out: KDM4C % Inhib. (10 uM).
Source text: as §1

For another assay, the target named is T3, JMJD2A (KDM4A) (Homo sapiens, UniProt O75164).
T3 sequence (O75164 1-1064): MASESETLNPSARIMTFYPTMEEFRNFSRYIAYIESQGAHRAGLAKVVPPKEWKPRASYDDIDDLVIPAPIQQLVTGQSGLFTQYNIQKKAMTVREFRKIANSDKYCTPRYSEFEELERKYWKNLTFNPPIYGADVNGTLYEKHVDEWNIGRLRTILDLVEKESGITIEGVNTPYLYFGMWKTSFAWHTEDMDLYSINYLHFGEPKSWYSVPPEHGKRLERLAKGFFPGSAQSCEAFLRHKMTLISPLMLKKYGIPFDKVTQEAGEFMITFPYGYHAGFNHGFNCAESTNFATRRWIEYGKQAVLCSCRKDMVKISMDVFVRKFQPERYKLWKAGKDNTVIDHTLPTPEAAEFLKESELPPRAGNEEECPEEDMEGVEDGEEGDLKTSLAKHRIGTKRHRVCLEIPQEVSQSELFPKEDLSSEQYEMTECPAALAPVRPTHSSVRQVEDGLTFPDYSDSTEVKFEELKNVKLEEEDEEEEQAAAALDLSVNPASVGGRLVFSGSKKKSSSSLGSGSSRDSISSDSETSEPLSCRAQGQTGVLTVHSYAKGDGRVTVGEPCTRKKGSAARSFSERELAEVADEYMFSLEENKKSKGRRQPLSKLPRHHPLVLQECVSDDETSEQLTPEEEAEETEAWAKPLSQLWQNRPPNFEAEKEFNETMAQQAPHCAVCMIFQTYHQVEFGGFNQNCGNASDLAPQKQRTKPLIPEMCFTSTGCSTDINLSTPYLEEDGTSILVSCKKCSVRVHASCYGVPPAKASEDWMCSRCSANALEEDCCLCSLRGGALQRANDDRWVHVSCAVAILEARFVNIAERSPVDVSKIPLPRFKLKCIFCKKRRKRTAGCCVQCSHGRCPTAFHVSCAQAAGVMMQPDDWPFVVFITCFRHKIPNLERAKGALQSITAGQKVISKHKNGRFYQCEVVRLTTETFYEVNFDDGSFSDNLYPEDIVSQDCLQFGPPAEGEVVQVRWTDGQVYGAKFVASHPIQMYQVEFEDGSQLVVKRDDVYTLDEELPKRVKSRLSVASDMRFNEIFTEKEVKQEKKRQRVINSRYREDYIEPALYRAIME
Conditions: read-out: KDM4A % Inhib. (10 uM).

In the next assay the target is T4, JMJD1A (KDM3A) (Homo sapiens, UniProt Q9Y4C1).
T4 sequence (Q9Y4C1 1-1321): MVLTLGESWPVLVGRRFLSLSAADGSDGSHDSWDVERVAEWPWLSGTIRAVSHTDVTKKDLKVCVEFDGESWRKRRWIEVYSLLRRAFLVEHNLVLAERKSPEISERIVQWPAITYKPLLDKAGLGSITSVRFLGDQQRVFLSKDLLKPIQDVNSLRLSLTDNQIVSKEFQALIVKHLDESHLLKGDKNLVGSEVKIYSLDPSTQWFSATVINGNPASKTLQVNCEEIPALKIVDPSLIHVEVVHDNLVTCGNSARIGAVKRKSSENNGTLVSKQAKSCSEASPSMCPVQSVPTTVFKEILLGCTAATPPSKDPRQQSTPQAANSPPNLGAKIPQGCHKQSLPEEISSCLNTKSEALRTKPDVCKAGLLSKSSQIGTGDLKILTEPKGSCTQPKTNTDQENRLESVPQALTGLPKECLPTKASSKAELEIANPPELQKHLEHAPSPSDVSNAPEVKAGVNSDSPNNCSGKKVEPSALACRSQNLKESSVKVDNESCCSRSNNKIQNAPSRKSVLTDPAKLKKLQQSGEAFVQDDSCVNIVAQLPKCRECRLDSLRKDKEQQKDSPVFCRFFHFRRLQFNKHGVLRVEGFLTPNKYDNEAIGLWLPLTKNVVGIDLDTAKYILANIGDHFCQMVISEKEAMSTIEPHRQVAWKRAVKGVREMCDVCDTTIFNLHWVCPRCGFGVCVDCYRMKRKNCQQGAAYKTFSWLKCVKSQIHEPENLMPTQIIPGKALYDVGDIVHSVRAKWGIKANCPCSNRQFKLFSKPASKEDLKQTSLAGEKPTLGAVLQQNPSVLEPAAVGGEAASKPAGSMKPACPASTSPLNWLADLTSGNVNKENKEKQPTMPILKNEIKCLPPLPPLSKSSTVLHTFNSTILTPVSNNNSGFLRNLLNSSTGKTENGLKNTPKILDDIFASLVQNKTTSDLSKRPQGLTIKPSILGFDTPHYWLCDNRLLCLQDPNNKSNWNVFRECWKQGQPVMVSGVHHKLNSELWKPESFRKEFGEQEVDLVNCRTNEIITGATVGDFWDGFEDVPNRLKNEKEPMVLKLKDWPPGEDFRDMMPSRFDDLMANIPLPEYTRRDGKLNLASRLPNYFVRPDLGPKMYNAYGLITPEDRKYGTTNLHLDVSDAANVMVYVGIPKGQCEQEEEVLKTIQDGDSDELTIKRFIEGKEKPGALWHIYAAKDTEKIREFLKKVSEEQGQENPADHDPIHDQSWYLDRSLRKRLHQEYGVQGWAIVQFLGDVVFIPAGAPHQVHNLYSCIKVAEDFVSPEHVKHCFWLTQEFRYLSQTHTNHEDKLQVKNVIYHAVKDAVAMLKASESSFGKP
Source text: as §1

Another assay addresses JARID1C (KDM5C) (Homo sapiens, UniProt P41229).
Source text: as §1

Chain of JARID1A (KDM5A) (P29375 whole entry): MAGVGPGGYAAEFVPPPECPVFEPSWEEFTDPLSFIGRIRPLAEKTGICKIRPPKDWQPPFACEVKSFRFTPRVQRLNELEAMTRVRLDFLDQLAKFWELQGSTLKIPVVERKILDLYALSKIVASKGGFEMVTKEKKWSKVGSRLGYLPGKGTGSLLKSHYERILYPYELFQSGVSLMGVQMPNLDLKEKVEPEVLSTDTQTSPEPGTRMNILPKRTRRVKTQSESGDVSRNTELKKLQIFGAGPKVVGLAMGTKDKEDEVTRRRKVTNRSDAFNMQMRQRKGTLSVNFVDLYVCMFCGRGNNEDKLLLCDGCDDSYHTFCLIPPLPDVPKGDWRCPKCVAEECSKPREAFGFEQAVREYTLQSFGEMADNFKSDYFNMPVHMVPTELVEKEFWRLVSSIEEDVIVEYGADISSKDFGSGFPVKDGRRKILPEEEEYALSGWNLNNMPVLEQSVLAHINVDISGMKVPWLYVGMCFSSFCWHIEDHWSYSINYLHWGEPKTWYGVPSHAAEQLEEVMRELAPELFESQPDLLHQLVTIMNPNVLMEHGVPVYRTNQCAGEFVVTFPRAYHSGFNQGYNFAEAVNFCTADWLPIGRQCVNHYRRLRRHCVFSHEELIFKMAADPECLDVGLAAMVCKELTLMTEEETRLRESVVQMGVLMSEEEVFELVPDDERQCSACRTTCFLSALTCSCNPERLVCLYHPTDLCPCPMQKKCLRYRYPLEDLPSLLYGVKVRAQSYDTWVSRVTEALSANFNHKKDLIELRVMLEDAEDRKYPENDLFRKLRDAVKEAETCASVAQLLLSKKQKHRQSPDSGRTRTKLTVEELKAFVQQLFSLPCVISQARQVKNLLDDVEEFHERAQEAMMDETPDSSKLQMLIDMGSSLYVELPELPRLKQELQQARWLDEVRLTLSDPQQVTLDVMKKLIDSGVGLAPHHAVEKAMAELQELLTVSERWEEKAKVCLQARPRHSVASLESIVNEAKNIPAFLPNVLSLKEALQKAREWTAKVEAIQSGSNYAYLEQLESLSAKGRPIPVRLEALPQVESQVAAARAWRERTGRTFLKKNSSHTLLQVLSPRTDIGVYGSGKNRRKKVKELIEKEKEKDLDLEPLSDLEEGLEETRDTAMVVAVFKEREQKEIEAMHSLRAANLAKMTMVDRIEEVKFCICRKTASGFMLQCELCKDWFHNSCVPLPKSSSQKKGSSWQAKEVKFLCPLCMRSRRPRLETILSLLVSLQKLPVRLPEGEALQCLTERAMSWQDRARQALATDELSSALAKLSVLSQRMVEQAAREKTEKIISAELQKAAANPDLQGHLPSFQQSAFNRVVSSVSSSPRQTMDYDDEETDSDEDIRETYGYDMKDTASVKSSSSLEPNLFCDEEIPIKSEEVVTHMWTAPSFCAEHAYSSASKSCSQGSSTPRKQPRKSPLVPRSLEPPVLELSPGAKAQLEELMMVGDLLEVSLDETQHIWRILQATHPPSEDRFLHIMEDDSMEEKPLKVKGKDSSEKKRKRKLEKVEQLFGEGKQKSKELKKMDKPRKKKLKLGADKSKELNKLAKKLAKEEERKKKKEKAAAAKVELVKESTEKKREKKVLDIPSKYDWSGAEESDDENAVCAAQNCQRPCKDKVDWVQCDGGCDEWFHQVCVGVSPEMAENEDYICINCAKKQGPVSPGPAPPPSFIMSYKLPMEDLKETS
Chain of JARID1C (KDM5C) (P41229 whole entry): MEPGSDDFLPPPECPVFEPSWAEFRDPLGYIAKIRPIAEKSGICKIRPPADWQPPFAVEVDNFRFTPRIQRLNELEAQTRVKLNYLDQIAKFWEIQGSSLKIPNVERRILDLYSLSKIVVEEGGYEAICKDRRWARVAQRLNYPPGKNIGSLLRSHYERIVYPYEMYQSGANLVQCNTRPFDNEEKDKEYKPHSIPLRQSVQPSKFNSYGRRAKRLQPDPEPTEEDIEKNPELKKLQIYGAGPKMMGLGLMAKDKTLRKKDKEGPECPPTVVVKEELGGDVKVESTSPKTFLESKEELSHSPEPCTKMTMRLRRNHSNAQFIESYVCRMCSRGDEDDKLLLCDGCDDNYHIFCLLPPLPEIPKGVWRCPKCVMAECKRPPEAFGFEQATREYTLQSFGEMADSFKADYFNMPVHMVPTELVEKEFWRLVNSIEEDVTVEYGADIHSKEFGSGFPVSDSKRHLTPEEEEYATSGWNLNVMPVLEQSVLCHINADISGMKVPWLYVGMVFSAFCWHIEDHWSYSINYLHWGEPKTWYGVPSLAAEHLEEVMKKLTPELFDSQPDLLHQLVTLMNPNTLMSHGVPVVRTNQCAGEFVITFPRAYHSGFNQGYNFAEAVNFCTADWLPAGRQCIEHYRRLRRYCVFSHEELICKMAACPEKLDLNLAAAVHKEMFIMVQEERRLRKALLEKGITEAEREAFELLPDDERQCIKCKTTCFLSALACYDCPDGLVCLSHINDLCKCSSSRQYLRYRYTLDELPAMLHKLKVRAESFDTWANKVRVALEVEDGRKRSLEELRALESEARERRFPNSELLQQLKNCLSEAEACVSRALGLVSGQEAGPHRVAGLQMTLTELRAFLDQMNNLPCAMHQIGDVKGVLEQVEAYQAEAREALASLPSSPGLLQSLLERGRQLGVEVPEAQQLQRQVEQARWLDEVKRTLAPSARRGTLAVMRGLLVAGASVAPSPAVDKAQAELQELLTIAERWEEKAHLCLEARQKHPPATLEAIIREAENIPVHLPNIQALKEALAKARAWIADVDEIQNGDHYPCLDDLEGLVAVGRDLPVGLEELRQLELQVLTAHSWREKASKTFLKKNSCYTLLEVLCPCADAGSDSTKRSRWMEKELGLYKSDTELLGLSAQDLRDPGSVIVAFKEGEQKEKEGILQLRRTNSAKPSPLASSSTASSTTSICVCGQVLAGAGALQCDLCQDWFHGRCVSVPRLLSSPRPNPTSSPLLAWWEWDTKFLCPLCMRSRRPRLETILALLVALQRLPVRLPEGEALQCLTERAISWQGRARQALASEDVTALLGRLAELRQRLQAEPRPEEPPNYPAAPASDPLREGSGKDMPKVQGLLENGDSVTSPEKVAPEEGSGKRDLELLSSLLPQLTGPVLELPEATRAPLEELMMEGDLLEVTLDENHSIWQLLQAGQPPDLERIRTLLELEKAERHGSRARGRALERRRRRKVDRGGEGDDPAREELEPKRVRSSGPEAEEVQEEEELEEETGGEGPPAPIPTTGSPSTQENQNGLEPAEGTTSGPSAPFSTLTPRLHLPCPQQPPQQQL

In the case of `CC(=O)N1c2ccccc2C(C#N)(c2ccccc2)C1c1ccc(CCCCCCCN2CCCC2)o1` (stereo not shown) [compound 138, 138], the figures for the inhibition at 10 µM at JMJD2D (KDM4D), at JMJD2C (KDM4C) and at JMJD2A (KDM4A) were 14.4%, 32.3% and 24.4%, respectively. At JARID1A (KDM5A), this molecule yielded an inhibition at 50 µM of 46.6%.

With `CC(=O)N1c2ccccc2C(C#N)(c2ccccc2)C1c1cncc(-c2cn(CCCCCN3CCCC3)nn2)c1` (stereo not shown) [compound 119, 119], the figures for the inhibition at 100 µM at JMJD1A (KDM3A) and against JARID1C (KDM5C) were 21.1% and 46.7%, respectively. Also, at JARID1A (KDM5A), the inhibition at 50 µM was determined as 39.5%.

Take `CC(=O)N1c2ccccc2[C@](C#N)(c2ccccc2)[C@H]1c1cncc(/C=C/CCCCCN2CCCC2)c1` (racemic) [compound 5, 5]: the inhibition at 100 µM came out at 15.1 ± 9.5% on JMJD1A (KDM3A) and 32.3% on JARID1C (KDM5C). This molecule showed an inhibition at 50 µM against JARID1A (KDM5A) of 39.1%.
